Legend:
[1] = Pharmacokinetic (PK) analysis of rat plasma; format: in vivo; settings: Sprague-Dawley, po, 20 mg/kg, SD rats, single gavage, 20 mg/10 mL/kg
Experimental: The pharmacokinetics test of the test compound was performed with Sprague Dawley (SD) rats (Shanghai Slac Laboratory Animal Co., LTD).
Mode of administration: Single gavage.
U Dosage: 20 mg/10 mL/kg.
Formulation prescription: 3% dimethylacetamide and 20% hydroxypropyl-3-cyclodextrin.
Sampling points: before administration and 15 minutes, 0.5, 1, 2, 4, 6, 8 and 24 hours after administration.
Plasma sampling and sample processing: • 1) 0.2 ml of intravenous blood was collected and placed in an EDTA-2K tube. The blood was centrifuged at 4° C. for 5 minutes at 6,000 rpm to separate the plasma, which was stored at −80° C. • 2) 160 μL of acetonitrile were added to 40 μL of plasma sample, standard, and internal reference. The mixture was shaken vertically for 3 minutes, and centrifuged at 4000 rpm for 10 minutes. 100 μL of the supernatant were taken, and then added with 100 μL of deionized water and mixed well. 100 μL of the resulting solution was taken for LC/MS/MS analysis. The instrument for plasma LC/MS/MS analysis was AB Sciex API 4000.
Liquid Chromatography Analysis: • Liquid chromatography conditions: Shimadzu LC-20AD pump • Chromatographic column: phenomenex Gemiu 5 μm C18 50×4.6 mm • Mobile phase: solution A was 0.1% formic acid solution, and solution B was acetonitrile • Flow rate: 0.8 mL/min • Elution time: 0-3.01 minutes and the eluent was as follows:
• Mass spectrometry analysis: setup conditions of mass spectrometer: positive ion electrospray ionization (ESI) mode. • Experimental results: the main parameters of pharmacokinetics were calculated by WinNonlin 6.1 and the experimental results are shown in the following table: […]

[2] = tested on: mouse rectal cancer cell line Colon26; test: Anti-tumor effect in Colon26 tumor-bearing mouse model; format: in vivo, mouse (Balb/c); settings: Colon26 tumor-bearing mice
Excerpt: The present invention further used the Colon26 tumor-bearing mouse model to test the anti-tumor effect of the example compounds. The Colon26 tumor-bearing mouse model was the mouse rectal cancer cell line Colon26 purchased from Guangzhou Ginio Biological Technology Co., Ltd., and the culture medium used was RPMI1640 containing 10% fetal bovine serum. The mouse strain used for tumor-bearing was Balb/c purchased from Sino-British SIPPR/BK Lab Animal Co., Ltd. At the time of implanting, the Colon26 cells in logarithmic growth phase were collected and mixed to 10 million cells/ml. Each mouse was implanted subcutaneously with 100 μl of one million cells. When the tumor grew to about 100 cubic millimeters, animals were randomly divided into groups with 8 animals per group. Drug administration was started (D0).
Mode of administration: intragastric administration, twice a day.
Formulation prescription: 3% dimethylacetamide and 20% hydroxypropyl-β-cyclodextrin. • Administration period and tumor measurement: The administration period was 13 days. The tumor volume was measured, the mice were weighed, and the data were recorded, 3 times per week. The calculation formula of tumor volume (V) is: V=½a×b2 where a and b represent length and width, respectively. The calculation formula of T/C is: T/C (%)=100×ΔT/ΔC. Tumor inhibition rate (%)=1−T/C (%). • Experimental results: The antitumor effect of the compound of Example 15 in Colon26 tumor-bearing mouse model is shown in the following table.
Under the same experimental conditions, the dosage was adjusted. The anti-tumor effect of Example 15 and its optical isomers 18-(1) and 18-(2) in Colon26 tumor-bearing mouse model is shown in the following table: […]

[3] = 25 mg/kg intragastric twice a day, D12

- AUC(0-inf) [1]: 5180 ng·h/mL
- Cmax [1]: 1350 ng/mL
- Tmax [1]: 30 min
- half-life [1]: 212 min
SMILES: CS(=O)(CCNc1nonc1/C(=N/O)Nc1ccc(F)c(Br)c1)=NS(=O)(=O)C1CC1 (stereo not drawn) [Example 15, (Z)—N-(3-bromo-4-fluorophenyl)-4-((2-(N-(cyclopropylsulfonyl)-S-methylsulfonimidoyl)ethyl)amino)-N′-hydroxy-1,2,5-oxadiazole-3-carboximidamide]
- Tumor inhibition rate (%) D12 ([2]; 10 mg/kg, D12): 71.10%
- Average tumor volume (mm^3 ± SEM) D0 ([2]; 25 mg/kg intragastric twice a day, D0 (start of administration)): 95.5 ± 2.0 mm^3
- Average tumor volume (mm^3 ± SEM) D12 [2, 3]: 212.7 ± 28.9 mm^3
- T/C (%) D12 [2, 3]: 5.4%
- Tumor inhibition rate (%) D12 ([2]; 25 mg/kg intragastric twice a day, D12, 25 mg/kg): 94.6%

From US20190040025A1, “INDOLEAMINE 2,3-DIOXYGENASE INHIBITOR, PREPARATION METHOD THEREFOR, AND APPLICATION” (Jiangsu Hansoh Pharmaceutical Group Co., Ltd., priority 2016, published 2019)
